# Measurements reported in PubChem BioAssay (NCI).
#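 Cells were grown in 96-well plates and exposed to each compound for 48 hours at five concentrations; endpoints were interpolated linearly between bracketing concentrations, or set to the highest concentration if not reached. At the TGI there is no net growth.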
# Tests used:
# Test in all cases: NCI anticancer screen, dose series, 48 h
# 786-0 renal = system: 786-0 renal
# ACHN renal = system: ACHN renal
# DU-145 prostate = system: DU-145 prostate
# HCT-116 colon = system: HCT-116 colon
# HOP-92 NSCLC = system: HOP-92 NSCLC
# LOX IMVI melanoma = system: LOX IMVI melanoma
# NCI/ADR-RES ovarian = system: NCI/ADR-RES ovarian
# OVCAR-3 ovarian = system: OVCAR-3 ovarian
# RPMI-8226 leukemia = system: RPMI-8226 leukemia
# TK-10 renal = system: TK-10 renal
SMILES,TGI (786-0 renal) [µM],TGI (ACHN renal) [µM],TGI (DU-145 prostate) [µM],TGI (HCT-116 colon) [µM],TGI (HOP-92 NSCLC) [µM],TGI (LOX IMVI melanoma) [µM],TGI (NCI/ADR-RES ovarian) [µM],TGI (OVCAR-3 ovarian) [µM],TGI (RPMI-8226 leukemia) [µM],TGI (TK-10 renal) [µM]
CCOC(=O)CCC(C(=O)OCC)n1nnc2cc(Nc3c(C)[n+]([O-])c4cc(F)c(OCC)cc4[n+]3[O-])ccc21 (stereo not given),> 100,> 100,> 100,> 100,88.8,> 100,> 100,> 100,> 100,> 100
COc1cccc(C2c3cc4c(cc3OC(Nc3ccccc3)C2C)OCO4)c1O (stereo not given),32.1,> 68.3,> 53.9,36,9.93,18.9,> 100,29.9,43.8,64.2
N#Cc1c(N)nc2c3c1NC(=O)C(C(N)=O)C3c1ccccc1O2 (stereo not given),> 100,> 100,> 100,> 100,71.9,> 100,> 100,> 100,> 100,> 100
CC(CNC(N)=O)NC(N)=O (stereo not given),> 100,> 100,> 100,> 100,> 100,> 100,> 100,> 100,> 100,> 100
NC(N)=NC1C(O)C(O)C(O)C(N=C(N)N)C1O (stereo not given),> 100,> 100,> 100,> 100,> 100,> 100,> 100,> 100,> 100,> 100
COc1ccccc1NC(=O)CC(=O)NN,> 100,> 100,> 100,> 100,> 100,> 100,> 100,> 100,> 100,> 100
O=C(c1ccc(Cl)cc1)N1CCN=C1c1cc2ccccc2c2ccccc12,30.4,31.2,38.4,28.1,26.3,36.1,33.3,35.3,55.8,29.2
COc1ccc2cc(C(C)C(=O)N3C(=O)OCC3(C)C)ccc2c1 (stereo not given),> 100,> 100,> 100,> 100,> 100,> 100,> 100,> 100,> 100,> 100
C[C@H](C1CC2(C)OC2(C)C(=O)O1)[C@H]1CC[C@H]2[C@@H]3[C@@H]4O[C@@H]4[C@@]4(O)CC=CC(=O)[C@]4(C)[C@H]3CC[C@]12C (stereo not given in full),> 50,> 50,> 50,> 50,> 50,> 50,> 50,> 50,> 50,> 50
COC(=O)Nc1nc2ccc(NC(=O)c3ccc(I)cc3)cc2[nH]1,> 100,> 100,> 100,> 100,> 100,> 100,> 100,> 100,> 100,> 100
O=c1[nH]nc(Cc2ccc(Cl)cc2)n1/N=C/c1ccc([N+](=O)[O-])o1,11.1,11.4,> 36.7,3.2,> 46.8,> 24.8,> 35.5,25.9,6.48,18.5
Cc1cc(-c2nc3cccc(O)c3s2)ccc1N,> 100,49.9,> 100,> 100,> 100,> 100,55.9,> 100,> 100,> 100
O=C(OCc1ccccc1)N1CCNCCNCCN(C(=O)OCc2ccccc2)CCNCC1,28.4,> 100,> 100,29.1,46.7,30.8,> 100,> 100,50.8,67.2
COC(NC(=O)Nc1ccccc1C)(C(F)(F)F)C(F)(F)F,> 100,> 100,> 100,> 100,> 100,> 100,> 100,> 100,> 100,> 100
